Key:
[1] = system: SK-N-MC neuroepithelioma cells; test: Proliferation assay (MTT, 72 h); type: cell-based; settings: Homo sapiens, 72 h incubation, mean ±SD (3 experiments)
Description: (§1) The human cancer cell types (neuroepithelioma (SK-N-MC), colon cancer (HCT116 with wild-type p53 (p53^+/+)), Burkitt's lymphoma (Raji) and cervical carcinoma (HeLa)) cells and normal human dermal fibroblasts (NHDF) were obtained from the American Type Culture Collection (ATCC, Manassas, VA, USA). HCT116 null p53 (p53^−/−) cells were obtained from the Maria Sklodowska-Curie Memorial Cancer Center and Institute of Oncology, Poland.
(§2) The SK-N-MC cells were cultured in minimum essential medium (MEM; Life Technologies, Grand Island, New York, USA) containing 10% (v/v) fetal bovine serum (FBS; Life Technologies), 1 mM sodium pyruvate (Life Technologies), 1% (v/v) non-essential amino acids (Life Technologies), 2 mM L-glutamine (Life Technologies), 100 U/mL penicillin (Life Technologies), 100 µg/mL streptomycin (Life Technologies) and 0.28 µg/mL fungizone (Bristol Myers Squibb Pharmaceuticals, Montreal, Canada). The HCT116 and NHDF cells were grown in Dulbecco's modified Eagle's medium (DMEM; Sigma-Aldrich) supplemented with 12% (v/v) heat-inactivated FBS (HCT116; Life Technologies) or 15% (v/v) FBS (NHDF; Life Technologies), 100 µg/mL of gentamicin (Polfa Warszawa S.A., Warsaw, Poland), 100 µg/mL of streptomycin (Polfa) and 100 U/mL of penicillin (Polfa). The Raji and HeLa cells were cultured in Roswell Park Memorial Institute medium (RPMI-1640; Sigma-Aldrich) with the addition of 10% (v/v) heat-inactivated FBS (Life Technologies) and the supplements described for SK-N-MC cells above. All cell lines were cultured under standard conditions at 37°C in a humidified atmosphere at 5% CO2 and were subcultured every 3–4 days as required.
(§3) The cells were seeded in 96-well plates (SK-N-MC: 1.5×10^4 cells/well; HeLa: 5.0×10^3 cells/well; Raji: 3.0×10^3 cells/well; HCT116: 3.5×10^3 cells/well; NHDF: 3.0×10^3 cells/well) 24 h prior to the addition of the novel compounds. The assays were performed using a 72 h (SK-N-MC, Raji, HeLa) or 96 h (HCT 116, NHDF) incubation period with the agents at 37°C. […] Additionally, DFO and Dp44mT were included as positive controls in all experiments as their activity is well characterized, [42], [50].
(§4) Chelator stock solutions were prepared in DMSO and diluted in media so that the final [DMSO] <0.05%. The results were expressed as a percentage of the control and the resulting IC50 values were calculated using GraphPad Prism 5 (GraphPad Software, Inc., La Jolla, CA, USA). The IC50 was defined as the concentration necessary to reduce the absorbance to 50% of the untreated control. Each individual compound was tested in triplicate in a single experiment, with each experiment being repeated three times. After incubation of HCT 116 and NHDF cells with the tested compounds, 20 µL of the CellTiter 96 Aqueous One Solution - MTS (Promega, Madison, WI, USA) solution was added to each well (with 100 µL of DMEM without phenol red) and incubated for 1 h/37°C. The optical density of the samples was analyzed at 490 nm.
(§5) MTT (3-[4,5-dimethylthiazol-2-yl]-2,5-diphenyltetrazolium bromide) was used to evaluate the anti-proliferative effects of the chelators in SK-N-MC and Raji cells. Following incubation with the investigated compounds, 10 µL of MTT (5 mg/mL in PBS; Sigma-Aldrich) was added to each well. After a 2 h (SK-N-MC) or 4 h (Raji) incubation, the plates were centrifuged, and the cells were lysed with 100 µL of 10% SDS-50% isobutanol in 0.01 M HCl (SK-N-MC) or DMSO (Raji). The absorbance was measured at 570 nm. The anti-proliferative effects of these novel agents on HeLa cells were estimated using crystal violet staining (0.5% crystal violet solution for 10 min). Finally, the wells were rinsed with water and the cells were lysed with 2% SDS. The optical density of the samples was analyzed at 595 nm.

[2] = system: Raji Burkitt's lymphoma cells; test: Proliferation assay (MTT, 72 h); type: cell-based; settings: Homo sapiens, 72 h incubation, mean ±SD (3 experiments)
Description: as §1, §2, §3, §4, §5

[3] = system: HCT116 p53+/+, HCT116 p53−/−, Raji, HeLa, SK-N-MC and NHDF cells; test: Proliferation assay, ranges stated over several cell-types; type: cell-based, human; settings: for IC50: Homo sapiens, HCT-116, range over HCT116 p53+/+ and p53−/− cells and over the compounds named, read-out: IC50 range in HCT116 cells; for Therapeutic index, NHDF relative to HCT116 cells: range over HCT116 p53+/+ and p53−/− and over the compounds named
Description: as §1, §2, §3, §4, §5

[4] = system: HeLa cervical carcinoma cells; test: Proliferation assay (crystal violet, 72 h); type: cell-based; settings: Homo sapiens, 72 h incubation, mean ±SD (3 experiments)
Description: as §1, §2, §3, §4, §5

[5] = system: HCT116 p53+/+ colon cancer cells; test: Proliferation assay (MTS, 96 h); type: cell-based, human; settings: for IC50: Homo sapiens, HCT-116, 96 h incubation, MTS, mean ±SD (3 experiments); for Therapeutic index NHDF vs. HCT116 p53+/+: NHDF cell IC50 divided by HCT116 p53+/+ IC50
Description: as §1, §2, §3, §4

[6] = system: HCT116 p53−/− colon cancer cells; test: Proliferation assay (MTS, 96 h); type: cell-based, human; settings: for IC50: 96 h incubation, MTS, mean ±SD (3 experiments); for Therapeutic index NHDF vs. HCT116 p53−/−: NHDF cell IC50 divided by HCT116 p53−/− IC50
Description: as §1, §2, §3, §4

[7] = system: normal human dermal fibroblast (NHDF) cells; test: Proliferation assay (MTS, 96 h), normal mortal cells; type: cell-based; settings: 96 h incubation, mean ±SD (3 experiments)
Description: as §1, §2, §3, §4

SK-N-MC cells = test: Inhibition of cellular 59Fe uptake from 59Fe2-Tf; type: cell-based, human; settings: chelator 25 µM, 59Fe2-Tf 0.75 µM, 3 h/37°C
Description: The iron transport protein, Tf (Sigma-Aldrich), was labeled with ^59Fe (PerkinElmer Life and Analytical Sciences, Boston, MA) to form ^59Fe2-Tf using standard methods, [7]. Unbound ^59Fe was removed by passage through a Sephadex G25 column and was followed by exhaustive dialysis, [7].
The ability of the chelators to prevent the cellular uptake of ^59Fe from ^59Fe2-Tf was examined using standard methods, [14], [17], [18], [50]. A monolayer of SK-N-MC cells was incubated with medium containing ^59Fe2-Tf (0.75 µM) and the chelator (25 µM) for 3 h at 37°C. The medium was then removed and the cells were washed four times with ice-cold PBS. The cells were then incubated for 30 min at 4°C with the general protease, Pronase (1 mg/mL; Sigma-Aldrich), to remove membrane-bound ^59Fe. The cells were removed using a plastic spatula and centrifuged at 14,000 rpm/1 min to separate internalized from membrane-bound ^59Fe. The cell pellet was resuspended in 1 mL of PBS and the internalized ^59Fe was measured on a γ-scintillation counter. Internalized ^59Fe uptake was calculated as a percentage of the control (medium alone). Again, the novel ligands were compared to DFO and Dp44mT as their ability to inhibit cellular ^59Fe uptake has been extensively characterized using SK-N-MC cells, [14], [17], [18], [50].
Figure 8 Effect of (A) series 1, (B) series 2, (C) series 3, (D) series 4, (E) series 5 and (F) series 6 chelators, relative to the controls DFO and Dp44mT, on ^59Fe uptake from ^59Fe-transferrin by SK-N-MC cells. Cells were incubated for 3 h/37°C with ^59Fe-transferrin (0.75 µM) in the presence or absence of the chelators (25 µM). At the end of this incubation, cells were washed 4 times with ice-cold PBS. Internalization of ^59Fe was assessed by incubation for 30 min/4°C with the protease, Pronase (1 mg/mL). Cellular ^59Fe was then assessed using a γ-scintillation counter. Results are mean ±SD (3 experiments).

[8] = Ascorbate oxidation assay (iron complexes); type: biochemical; settings: iron complex, IBE 3; FeIII 10 µM, ascorbate 100 µM
Description: The ability of the iron complexes of the novel ligands to mediate the oxidation of the physiological substrate, ascorbate, was examined using established methods, [18], [22], [52], [53]. Ascorbic acid (100 µM) was prepared immediately prior to each experiment and was incubated in the presence of Fe^III (10 µM; as FeCl3), the chelator (1–60 µM) and a 50-fold molar excess of citrate (500 µM). The absorbance at 265 nm was measured after 10 and 40 min and the difference in absorbance at these time points was calculated. The results of these experiments were expressed as iron-binding equivalents (IBE) due to the different denticity of the chelators examined. The chelators, Dp44mT, DFO and ethylenediaminetetraacetic acid (EDTA) were used as controls as the ability of their iron complexes to oxidize ascorbate has been extensively characterized, [15], [52], [53].
The ability of the iron complexes of the novel TSCs to catalyze the oxidation of the physiological substrate, ascorbate, was important to assess as redox cycling may play a critical role in their anti-proliferative activity, [15], [18], [52], [53]. Thus, the oxidation of ascorbate mediated by the iron complexes of series 1–6 were examined in comparison to the iron complexes of the control compounds, DFO, EDTA and Dp44mT, as the ability of the latter to oxidize ascorbate is well characterized, [15], [52], [53], [68]. The results were expressed as a percentage of the control (no chelator) at iron-binding equivalents (IBEs) of 0.1 (excess “free” iron), 1 (iron-chelator complexes with a fully filled coordination sphere), or 3 (excess free chelator), due to the different denticity of the chelators examined (Fig. 10).
Figure 10 Effect of the iron complexes of (A) series 1, (B) series 2, (C) series 3, (D) series 4, (E) series 5 and (F) series 6 chelators, relative to DFO, Dp44mT and EDTA, on ascorbate oxidation. Chelators at iron-binding equivalent (IBE) ratios of 0.1, 1, and 3 were incubated in the presence of Fe^III (10 µM) and ascorbate (100 µM). The UV-Vis absorbance at 265 nm was recorded after 10 and 40 min, and the difference between the time points was calculated. Results are mean ±SD (3 experiments).

| SMILES | IC50 [1] [nM] | IC50 [2] [nM] | Decrease in anti-proliferative efficacy, HCT116 p53+/+ vs HCT116 p53−/− ([3]; comparison of IC50 in HCT116 p53+/+ and p53−/− cells) [fold] | IC50 [4] [nM] | IC50 [5] [nM] | IC50 [6] [nM] | IC50 ([6]; Homo sapiens, HCT-116, 96 h) [nM] | IC50 ([7]; Homo sapiens, NHDF, 96 h) [nM] | Internalized 59Fe uptake from 59Fe2-Tf (% of the control) (SK-N-MC cells) | IC50 [3] [nM] | Therapeutic index, NHDF relative to HCT116 cells [3] | Ascorbate oxidation (% of the control) [8] | Therapeutic index NHDF vs. HCT116 p53+/+ [5] | Therapeutic index NHDF vs. HCT116 p53−/− [6] | IC50 [7] [nM] |
| --- | --- | --- | --- | --- | --- | --- | --- | --- | --- | --- | --- | --- | --- | --- | --- |
| Oc1cccc2ccc(/C=N/NC(=S)N3CCN(c4cnccn4)CC3)nc12 [3e] | > 6250 | 40 ± 20 | 100 | 2390 ± 20 | 50 ± 30 | 5010 ± 2550 | 5000 | 12100 ± 3600 |  |  |  |  |  |  |  |
| S=C(N/N=C/c1cnc2ccccc2n1)N1CCOCC1 [5c] | 2870 ± 1250 | 240 ± 40 |  | 860 ± 90 | 2030 ± 1240 |  | 5840 ± 1650 | 11600 ± 1800 | 3.6–11.5% |  |  |  |  |  |  |
| S=C(NN=C(c1ccccn1)c1ccccn1)N1CCN(c2ccccc2)CC1 [1b] | 50 ± 10 | 0.3 ± 0.03 |  | 570 ± 160 | 0.8 ± 0.1 |  | 0.8 ± 0.1 | 1.7 ± 0.7 |  | 0.8 to 90 | 2 | 200–265% | 2 | 2 |  |
| S=C(NN=C(c1ccccn1)c1ccccn1)N1CCN(c2ccccn2)CC1 [1d, Z-N′-(di(pyridin-2-yl)methylene)-4-(pyridin-2-yl)piperazine-1-carbothiohydrazide] | 20 ± 10 | 1.3 ± 0.1 |  | 30 ± 20 | 2 |  | 9 ± 1 | 160 to 10600 |  | 2 to 17 | 18–2650 | 200–265% | 80 | 18 | 160 ± 40 |
| CN(C(=S)N/N=C/c1ccc2cccc(O)c2n1)C1CCCCC1 [3f] | > 6250 | 10 |  | 2570 ± 460 | 3110 ± 1920 |  | 4350 ± 1350 | 5360 ± 1990 | 3.6–11.5% |  |  |  |  |  |  |
| Oc1ccccc1/C=N/NC(=S)N1CCOCC1 [6c] | > 6250 | 3790 ± 80 |  | 18200 ± 1300 | 15400 ± 1700 |  | 16400 ± 3100 | > 25000 | 3.6–11.5% |  |  |  |  |  |  |
